Data: paper PMC11882969 (Nature Communications, 2025)
Several values for one entry are separate records, joined by “and”; a condition that tells them apart may be missing. Equal values may be shown once.

What was measured:
[1] = system: mice; assay: Acetone test, cold allodynia after spared nerve injury; format: in vivo, mouse
Method: Mice were placed on a wire mesh and thirty min after an i.p. injection of the compounds we applied a drop (50 μL) of acetone on the ventral aspect of the hindpaw, 5 times every 30 sec. We recorded the number of nocifensive behaviors (paw lifts/licks/shakes/bites) over the 5 applications.

[2] = target: panel of 320 non-olfactory GPCRs (Homo sapiens, UniProt P46089); format: cell-based
[3] = target: panel of 320 non-olfactory GPCRs (Homo sapiens, UniProt P0DMS8); format: cell-based
[4] = target: panel of 320 non-olfactory GPCRs (Homo sapiens, UniProt Q9UNW8); format: cell-based
[5] = target: panel of 320 non-olfactory GPCRs (Homo sapiens, UniProt Q9GZN0); format: cell-based
[6] = target: panel of 320 non-olfactory GPCRs (Homo sapiens, UniProt Q99679); format: cell-based
[7] = target: panel of 320 non-olfactory GPCRs (Homo sapiens, UniProt P25105); format: cell-based
[8] = target: panel of 320 non-olfactory GPCRs (Homo sapiens, UniProt P51679); format: cell-based
[9] = target: panel of 320 non-olfactory GPCRs (Homo sapiens, UniProt P49190); format: cell-based
[10] = target: panel of 320 non-olfactory GPCRs (Homo sapiens, UniProt P35414); format: cell-based
[11] = target: panel of 320 non-olfactory GPCRs (Homo sapiens, UniProt P25106); format: cell-based
[12] = target: panel of 320 non-olfactory GPCRs (Homo sapiens, UniProt O95838); format: cell-based
[13] = target: panel of 320 non-olfactory GPCRs (Homo sapiens, UniProt O15552); format: cell-based
[14] = target: panel of 320 non-olfactory GPCRs (Homo sapiens, UniProt P35367); format: cell-based
[15] = target: panel of 320 non-olfactory GPCRs (Homo sapiens, UniProt Q96RI9); format: cell-based
[16] = target: panel of 320 non-olfactory GPCRs (Homo sapiens, UniProt Q15077); format: cell-based
[17] = target: panel of 320 non-olfactory GPCRs (Homo sapiens, UniProt P28335, I156V/I160V); format: cell-based
[18] = target: panel of 320 non-olfactory GPCRs (Homo sapiens, UniProt P30872); format: cell-based
[19] = target: panel of 320 non-olfactory GPCRs (Homo sapiens, UniProt Q9Y5Y4); format: cell-based
[20] = target: panel of 320 non-olfactory GPCRs (Homo sapiens, UniProt Q86VZ1); format: cell-based
[21] = target: panel of 320 non-olfactory GPCRs (Homo sapiens, UniProt Q5T6X5); format: cell-based
[22] = target: panel of 320 non-olfactory GPCRs (Homo sapiens, UniProt Q9NS75); format: cell-based
[23] = system: CB1R; assay: Bimane fluorescence of labeled CB1R; format: biochemical, human; settings: 10 μM ligand; apo 459 nm
Method: A minimal cysteine version of CB1R was generated[85] where all the cysteine residues (except C256 and C264) were mutated to alanine. […] Excess label was removed using size exclusion chromatography on a Superdex 200 10/300 Increase column in 20 mM HEPES pH 7.5, 100 mM NaCl and 0.01% MNG/0.001% CHS. Bimane-labeled CB1R at […] was incubated with ligands (10 μM) for one hour at room temperature. Fluorescence data was collected at room temperature in a 150 μL cuvette with a FluorEssence v3.8 software on a Fluorolog instrument (Horiba) in photon-counting mode. Bimane fluorescence was measured by excitation at 370 nm with excitation and emission bandwidth passes of 4 nm. The emission spectra were recorded from 410 to 510 nm with 1 nm increment and 0.1 s integration time.

[24] = system: mice; assay: Catalepsy test, vertical wire mesh; format: in vivo, mouse; settings: for Individual animal values (FigS11d): test not printed on the sheet
Method: Thirty min after an i.p. injection of the compounds, mice were placed on a vertical wire mesh and the latency to move all four paws was recorded.

[25] = system: mice; assay: Tail flick, 50 °C water bath; format: in vivo, mouse; settings: for analgesic response normalised to baseline, WT vs CB1R KO (Figure5d), individual animals / Response relative to Baseline, individual animals (FigS11c): 0.2 mg/kg; for Response relative to Baseline, individual animals (FigS11c): test not printed on the sheet
[26] = system: mice; assay: Hot plate, 52 °C; format: in vivo, mouse; settings: for Jump / Paw lick / Paw shake / Paw withdrawal: individual animals, FigS11b

Sequence of panel of 320 non-olfactory GPCRs (Homo sapiens, UniProt Q9Y5Y4) (Q9Y5Y4 whole entry): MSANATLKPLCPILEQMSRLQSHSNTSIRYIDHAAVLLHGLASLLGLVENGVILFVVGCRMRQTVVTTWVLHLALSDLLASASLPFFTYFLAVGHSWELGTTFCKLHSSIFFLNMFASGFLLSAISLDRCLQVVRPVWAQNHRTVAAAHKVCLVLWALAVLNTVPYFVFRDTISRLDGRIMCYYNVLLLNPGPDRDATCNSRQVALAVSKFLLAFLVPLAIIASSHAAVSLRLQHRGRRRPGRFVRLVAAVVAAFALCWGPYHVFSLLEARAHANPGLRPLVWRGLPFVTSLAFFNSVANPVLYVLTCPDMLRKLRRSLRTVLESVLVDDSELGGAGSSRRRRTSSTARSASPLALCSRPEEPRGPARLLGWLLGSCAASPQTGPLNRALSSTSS
Sequence of panel of 320 non-olfactory GPCRs (Homo sapiens, UniProt Q5T6X5) (Q5T6X5 19-926): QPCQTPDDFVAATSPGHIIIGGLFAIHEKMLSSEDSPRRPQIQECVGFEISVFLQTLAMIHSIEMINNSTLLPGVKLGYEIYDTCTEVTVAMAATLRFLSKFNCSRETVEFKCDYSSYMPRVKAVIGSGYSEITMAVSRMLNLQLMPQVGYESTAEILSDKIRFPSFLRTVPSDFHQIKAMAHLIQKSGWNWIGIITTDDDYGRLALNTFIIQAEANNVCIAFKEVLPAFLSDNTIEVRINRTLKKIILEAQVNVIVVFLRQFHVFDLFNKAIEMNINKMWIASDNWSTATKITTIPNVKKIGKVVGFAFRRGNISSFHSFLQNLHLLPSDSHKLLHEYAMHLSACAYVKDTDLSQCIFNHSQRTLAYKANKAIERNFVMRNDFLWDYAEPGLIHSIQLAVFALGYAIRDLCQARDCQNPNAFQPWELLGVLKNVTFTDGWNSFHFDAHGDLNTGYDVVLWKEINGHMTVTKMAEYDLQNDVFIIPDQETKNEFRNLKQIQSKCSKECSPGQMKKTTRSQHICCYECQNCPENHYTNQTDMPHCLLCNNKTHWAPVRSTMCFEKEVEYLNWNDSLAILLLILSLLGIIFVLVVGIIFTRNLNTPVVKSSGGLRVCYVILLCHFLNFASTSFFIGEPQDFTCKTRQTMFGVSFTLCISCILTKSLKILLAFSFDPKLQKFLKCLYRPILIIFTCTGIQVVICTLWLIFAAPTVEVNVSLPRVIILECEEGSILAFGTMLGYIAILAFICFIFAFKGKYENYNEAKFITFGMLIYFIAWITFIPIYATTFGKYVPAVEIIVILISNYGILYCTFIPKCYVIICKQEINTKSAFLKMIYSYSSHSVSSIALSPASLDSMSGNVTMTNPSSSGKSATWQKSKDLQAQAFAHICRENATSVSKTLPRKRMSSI
Sequence of panel of 320 non-olfactory GPCRs (Homo sapiens, UniProt P35367) (P35367 whole entry): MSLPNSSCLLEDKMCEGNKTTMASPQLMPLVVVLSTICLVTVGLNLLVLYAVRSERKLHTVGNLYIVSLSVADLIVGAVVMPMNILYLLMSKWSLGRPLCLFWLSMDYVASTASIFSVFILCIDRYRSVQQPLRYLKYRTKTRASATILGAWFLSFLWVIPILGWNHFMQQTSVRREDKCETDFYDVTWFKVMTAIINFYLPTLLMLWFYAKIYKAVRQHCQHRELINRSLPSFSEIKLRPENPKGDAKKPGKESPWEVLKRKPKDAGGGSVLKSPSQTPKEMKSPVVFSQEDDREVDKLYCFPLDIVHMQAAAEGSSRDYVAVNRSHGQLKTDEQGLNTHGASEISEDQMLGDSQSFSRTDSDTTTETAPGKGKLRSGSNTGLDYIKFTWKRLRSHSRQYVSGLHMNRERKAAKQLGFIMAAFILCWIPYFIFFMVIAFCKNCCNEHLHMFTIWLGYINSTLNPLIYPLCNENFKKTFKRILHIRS
Sequence of panel of 320 non-olfactory GPCRs (Homo sapiens, UniProt P51679) (P51679 whole entry): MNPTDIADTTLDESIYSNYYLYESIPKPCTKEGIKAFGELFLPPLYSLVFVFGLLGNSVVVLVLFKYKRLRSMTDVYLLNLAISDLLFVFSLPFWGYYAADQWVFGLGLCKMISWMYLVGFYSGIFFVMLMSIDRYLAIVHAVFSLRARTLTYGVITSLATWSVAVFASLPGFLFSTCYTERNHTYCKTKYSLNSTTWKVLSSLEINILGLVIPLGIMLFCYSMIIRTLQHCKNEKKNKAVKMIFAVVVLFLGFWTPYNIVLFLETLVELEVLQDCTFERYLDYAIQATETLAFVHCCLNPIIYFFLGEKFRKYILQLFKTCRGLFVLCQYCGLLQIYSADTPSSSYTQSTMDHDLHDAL
Sequence of panel of 320 non-olfactory GPCRs (Homo sapiens, UniProt P25105) (P25105 whole entry): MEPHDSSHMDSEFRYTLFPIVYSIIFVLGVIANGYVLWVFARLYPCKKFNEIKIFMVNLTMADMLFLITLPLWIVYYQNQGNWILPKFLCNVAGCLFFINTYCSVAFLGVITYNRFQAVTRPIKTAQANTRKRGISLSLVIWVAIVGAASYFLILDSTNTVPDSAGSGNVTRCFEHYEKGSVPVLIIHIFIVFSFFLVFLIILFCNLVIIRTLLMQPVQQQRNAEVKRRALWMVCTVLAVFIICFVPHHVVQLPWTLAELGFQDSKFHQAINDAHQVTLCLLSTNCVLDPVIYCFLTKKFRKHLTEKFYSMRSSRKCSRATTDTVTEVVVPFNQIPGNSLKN
Sequence of panel of 320 non-olfactory GPCRs (Homo sapiens, UniProt P49190) (P49190 25-550): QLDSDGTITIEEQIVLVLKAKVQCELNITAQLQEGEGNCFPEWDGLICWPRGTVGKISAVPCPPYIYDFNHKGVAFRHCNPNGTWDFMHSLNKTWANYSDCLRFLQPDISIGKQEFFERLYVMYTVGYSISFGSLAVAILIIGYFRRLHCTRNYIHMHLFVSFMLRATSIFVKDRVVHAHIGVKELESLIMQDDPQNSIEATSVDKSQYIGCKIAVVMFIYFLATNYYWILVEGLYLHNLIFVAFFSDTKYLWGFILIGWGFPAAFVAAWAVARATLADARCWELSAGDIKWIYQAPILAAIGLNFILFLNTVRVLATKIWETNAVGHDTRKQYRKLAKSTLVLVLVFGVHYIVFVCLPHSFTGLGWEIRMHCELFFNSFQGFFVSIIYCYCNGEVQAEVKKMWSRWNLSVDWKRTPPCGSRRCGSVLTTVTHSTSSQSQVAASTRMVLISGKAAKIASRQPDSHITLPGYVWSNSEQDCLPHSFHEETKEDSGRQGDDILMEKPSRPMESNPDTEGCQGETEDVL
Sequence of panel of 320 non-olfactory GPCRs (Homo sapiens, UniProt Q15077) (Q15077 whole entry): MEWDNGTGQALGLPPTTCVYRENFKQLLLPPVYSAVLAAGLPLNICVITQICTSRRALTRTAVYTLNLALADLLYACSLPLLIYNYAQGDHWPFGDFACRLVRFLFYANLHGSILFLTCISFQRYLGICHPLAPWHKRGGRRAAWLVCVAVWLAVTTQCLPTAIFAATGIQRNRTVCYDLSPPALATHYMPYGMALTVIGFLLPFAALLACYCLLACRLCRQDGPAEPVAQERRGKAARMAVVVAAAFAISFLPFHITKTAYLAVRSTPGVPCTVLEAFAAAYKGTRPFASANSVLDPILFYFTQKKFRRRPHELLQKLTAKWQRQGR
Sequence of panel of 320 non-olfactory GPCRs (Homo sapiens, UniProt Q9NS75) (Q9NS75 whole entry): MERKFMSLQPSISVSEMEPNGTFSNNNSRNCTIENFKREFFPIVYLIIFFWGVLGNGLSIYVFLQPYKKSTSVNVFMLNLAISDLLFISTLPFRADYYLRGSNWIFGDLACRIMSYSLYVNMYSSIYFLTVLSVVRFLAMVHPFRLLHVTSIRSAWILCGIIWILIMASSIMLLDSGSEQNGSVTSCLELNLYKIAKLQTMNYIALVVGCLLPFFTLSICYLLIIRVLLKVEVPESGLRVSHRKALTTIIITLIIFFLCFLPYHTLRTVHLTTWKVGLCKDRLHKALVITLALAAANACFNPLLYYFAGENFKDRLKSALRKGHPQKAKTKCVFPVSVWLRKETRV
Sequence of panel of 320 non-olfactory GPCRs (Homo sapiens, UniProt P25106) (P25106 whole entry): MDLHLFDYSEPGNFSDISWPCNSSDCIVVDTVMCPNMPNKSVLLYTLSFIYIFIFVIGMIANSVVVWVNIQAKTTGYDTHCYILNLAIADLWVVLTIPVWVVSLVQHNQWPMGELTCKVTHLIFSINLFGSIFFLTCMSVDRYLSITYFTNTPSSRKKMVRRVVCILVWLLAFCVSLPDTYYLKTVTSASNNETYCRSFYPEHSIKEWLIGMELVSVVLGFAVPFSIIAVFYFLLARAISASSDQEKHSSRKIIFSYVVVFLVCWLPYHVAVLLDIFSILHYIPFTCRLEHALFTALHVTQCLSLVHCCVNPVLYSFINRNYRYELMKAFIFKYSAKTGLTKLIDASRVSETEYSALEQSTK
Sequence of panel of 320 non-olfactory GPCRs (Homo sapiens, UniProt P30872) (P30872 whole entry): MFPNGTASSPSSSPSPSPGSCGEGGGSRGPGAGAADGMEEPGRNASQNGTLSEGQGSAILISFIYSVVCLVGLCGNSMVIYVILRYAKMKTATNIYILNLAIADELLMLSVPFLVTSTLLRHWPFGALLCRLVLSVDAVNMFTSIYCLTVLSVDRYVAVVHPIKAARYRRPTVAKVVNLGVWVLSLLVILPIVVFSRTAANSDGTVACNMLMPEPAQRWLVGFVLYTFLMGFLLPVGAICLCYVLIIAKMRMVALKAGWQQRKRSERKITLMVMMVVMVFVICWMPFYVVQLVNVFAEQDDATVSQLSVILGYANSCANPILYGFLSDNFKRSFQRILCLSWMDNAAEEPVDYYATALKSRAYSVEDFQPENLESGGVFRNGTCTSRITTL
Sequence of panel of 320 non-olfactory GPCRs (Homo sapiens, UniProt P46089) (P46089 whole entry): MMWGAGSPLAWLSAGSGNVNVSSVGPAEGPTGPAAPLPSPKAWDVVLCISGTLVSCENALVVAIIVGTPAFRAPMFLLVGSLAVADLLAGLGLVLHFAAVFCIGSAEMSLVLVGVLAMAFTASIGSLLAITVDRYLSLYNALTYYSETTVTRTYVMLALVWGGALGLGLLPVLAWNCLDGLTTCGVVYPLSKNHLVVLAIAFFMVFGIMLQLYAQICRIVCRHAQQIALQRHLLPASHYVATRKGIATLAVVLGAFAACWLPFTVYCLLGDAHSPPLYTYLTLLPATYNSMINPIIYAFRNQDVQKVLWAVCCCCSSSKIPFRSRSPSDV

COC(=O)[C@@](C)(NC(=O)c1cc(C)n(-c2cccc(C(F)(F)F)c2)n1)c1cccs1 [‘1350]
acetone test response after spared nerve injury (Figure5b), individual animals ([1]; Dose 0.05 mg/kg): 48 and 66 and 108 and 56 and 46
acetone test response after spared nerve injury (Figure5b), individual animals ([1]; Dose 0.1 mg/kg): 38 and 48 and 28 and 64 and 18
acetone test response after spared nerve injury (Figure5b), individual animals ([1]; Dose 0.2 mg/kg): 26 and 54 and 32
lowest dose with significant anti-allodynia, acetone test ([1]; i.p.): 0.05 mg/kg
effect on acetone-induced nocifensive behaviors ([1]; spared nerve injury, i.p.): strongly reduced spared nerve injury-induced cold allodynia
Fold of Basal RLU [2]: 1 fold and 1.1 fold and 1.4 fold and 1.3 fold
Fold of Basal RLU [3]: 1 fold and 0.9 fold and 1.2 fold
Fold of Basal RLU [4]: 0.8 fold and 1 fold
Fold of Basal RLU [5]: 1.5 and 1.4 and 1.3
Fold of Basal RLU [6]: 1 and 0.8 and 1.3
Fold of Basal RLU [7]: 1.3 fold and 0.9 fold and 1.7 fold
Fold of Basal RLU [8]: 1.1 and 1 and 0.9
Fold of Basal RLU [9]: 1 and 0.7 and 0.9
Fold of Basal RLU [10]: 0.9 fold and 1.1 fold and 1.2 fold and 1 fold
Fold of Basal RLU [11]: 1.1 fold and 1 fold and 1.6 fold and 2 fold
Fold of Basal RLU [12]: 1.1 fold and 1.5 fold and 1 fold and 0.8 fold
Fold of Basal RLU [13]: 0.9 and 1.2
Fold of Basal RLU [14]: 0.9 fold and 1 fold and 1.1 fold
Fold of Basal RLU [15]: 1.2 and 1.1 and 1.5
Fold of Basal RLU [16]: 1.4 fold and 1.2 fold and 1.1 fold
Fold of Basal RLU [17]: 0.4 and 0.8
Fold of Basal RLU [18]: 1.6 fold and 1.2 fold and 1.5 fold
Fold of Basal RLU [19]: 1.1 fold and 1.4 fold and 1.5 fold
Fold of Basal RLU [20]: 0.6 fold and 1.1 fold and 0.8 fold and 0.7 fold
Fold of Basal RLU [21]: 0.7 fold and 0.9 fold and 1.1 fold
Fold of Basal RLU [22]: 1.3 and 1.4 and 1.8
bimane spectrum λmax [23]: 463 nm
catalepsy (Figure6c), individual animals ([24]; 0.2 mg/kg dose): 7 and 4 and 15 and 2 (2×)
catalepsy (Figure6c), individual animals ([24]; 0.5 mg/kg dose): 2 and 10 and 30 and 20 and 5 and 0.5 and 2.4 and 2.2 and 2.3 and 0.7 and 1 and 2.7 and 2.9 and 2.1 and 1.4
catalepsy (Figure6c), individual animals ([24]; 1 mg/kg dose): 16 and 5 and 4 and 30 and 6
catalepsy at a sedating dose ([24]; 1 mg/kg i.p.): non-significant, but nevertheless, increased latency to move the paws
catalepsy in CB1R knockout ([24]; 1 mg/kg, CB1R KO mice): eliminated this minimal cataleptic effect
catalepsy in CB2R knockout ([24]; 1 mg/kg, CB2R KO vs wildtype): statistically significant increase in catalepsy
Individual animal values (FigS11d) ([24]; CB1R KO mice, 1 mg/kg): 3.1 and 2.8 and 2.7 and 1.8
Individual animal values (FigS11d) ([24]; CB2R KO mice, 0.2 mg/kg): 2.2 and 2.7 and 4 and 4.2 and 2.8
Individual animal values (FigS11d) ([24]; CB2R KO mice, 0.5 mg/kg): 3.3 and 4.3 and 29.3 and 28 and 5.6
Individual animal values (FigS11d) ([24]; CB2R KO mice, 1 mg/kg): 40 and 2
Individual animal values (FigS11d) ([24]; WT mice, 0.2 mg/kg): 7 and 4 and 15 and 2
Individual animal values (FigS11d) ([24]; WT mice, 0.5 mg/kg): 2.4 and 2.2 and 2.3 and 0.7 and 1 and 2.7 and 2.1 and 1.4 and 2 and 10 and 30 and 20 and 5
Individual animal values (FigS11d) ([24]; WT mice, 1 mg/kg): 16 and 5 and 4 and 30 and 6
dose at which catalepsy starts ([24]; i.p.): 1 mg/kg
catalepsy, latency to move all four paws ([24]; i.p., ‘1350 at 0.2 or 0.5 mg/kg, haloperidol 1.0 mg/kg): did not induce cataleptic behavior
tail flick latency on cotreatment with morphine ([25]; 0.05 and 0.1 mg/kg plus morphine 3.0 mg/kg i.p.): significantly longer tail-flick latencies than did mice injected with morphine alone
effect of CB1R knockout on analgesia, tail flick ([25]; CB1R KO mice): completely blocked the analgesic effect
analgesic response normalised to baseline, WT vs CB1R KO (Figure5d), individual animals ([25]; CB1R KO mice): 106.345 and 98.767 and 101.721 and 166.196 and 107.501
Response relative to Baseline, individual animals (FigS11c) ([25]; CB2R KO mice): 164.985 and 191.573 and 174.006 and 295.549 and 230.504 and 308.843 and 149.555 and 202.493 and 243.323 and 186.825
tail flick response normalised to baseline (Figure4a), individual animals ([25]; Dose 0.05 mg/kg): 119.013 and 100.323 and 160.799 and 150.926 and 127.123
tail flick response normalised to baseline (Figure4a), individual animals ([25]; Dose 0.1 mg/kg): 155.51 and 183.368 and 185.307 and 158.155 and 125.713
tail flick response normalised to baseline (Figure4a), individual animals ([25]; Dose 0.2 mg/kg): 215.281 and 170.849 and 208.757 and 269.409 and 238.025
tail flick response normalised to baseline (Figure4a), individual animals ([25]; Dose 0.5 mg/kg): 229.386 and 270.644 and 271.701 and 225.86 and 268.175
analgesic response normalised to baseline, WT vs CB1R KO (Figure5d), individual animals ([25]; WT mice): 175.053 and 136.358 and 121.523 and 181.234 and 162.69 and 195.08 and 109.284 and 151.687 and 140.809 and 142.663
Response relative to Baseline, individual animals (FigS11c) ([25]; WT mice): 303.35 and 281.096 and 250.176 and 198.641 and 149.684 and 198.173 and 421.644 and 117.592 and 166.55 and 75.1933
lowest dose with significantly increased tail flick latency ([25]; i.p., 30 min after injection): 0.1 mg/kg
Jump ([26]; 0.05 mg/kg): 0 (4×) and 2
Paw lick ([26]; 0.05 mg/kg): 0 (3×) and 2 and 12
Paw shake ([26]; 0.05 mg/kg): 20 and 22 and 48 and 24 and 12
Paw withdrawal ([26]; 0.05 mg/kg): 28 and 42 and 47 and 50 and 14
Jump ([26]; 0.1 mg/kg): 0
Paw lick ([26]; 0.1 mg/kg): 2 and 0 (3×) and 8
Paw shake ([26]; 0.1 mg/kg): 16 and 18 and 6 and 22 and 4
Paw withdrawal ([26]; 0.1 mg/kg): 20 and 30 and 22 and 34 and 14
Jump ([26]; 0.2 mg/kg): 8 and 0 and 34 and 14 (2×)
Paw lick ([26]; 0.2 mg/kg): 0
Paw shake ([26]; 0.2 mg/kg): 2 (2×) and 4 and 0 (2×)
Paw withdrawal ([26]; 0.2 mg/kg): 16 and 22 and 18 (2×) and 12
effect of CB2R knockout on analgesia, hot plate ([26]; CB2R KO mice): did not decrease the analgesic effects
hot plate response normalised to baseline (Figure4b), individual animals ([26]; Dose 0.05 mg/kg): 62.7 and 108.4 and 141.6 and 81.1 and 84.7 and 79 and 84.5 and 85.4 and 86.2 and 81.8
hot plate response normalised to baseline (Figure4b), individual animals ([26]; Dose 0.1 mg/kg): 100.2 and 152.6 and 103.1 and 113.3 and 127.2 and 80.8 and 109.9 and 151.2 and 138.2 and 159.1
hot plate response normalised to baseline (Figure4b), individual animals ([26]; Dose 0.2 mg/kg): 191.789 and 117.988 and 110.937 and 200.407 and 123.942
hot plate response normalised to baseline (Figure4b), individual animals ([26]; Dose 0.5 mg/kg): 244.124 and 212.316 and 122.062 and 249.608 and 217.8
lowest dose with significantly increased hot plate latency ([26]; i.p., 30 min after injection): 0.1 mg/kg
